For 5 molecules, IC50 results are on record in BindingDB's records for patent WO2022091056 (NOVARTIS AG, 2022).

Sequence of Interleukin-17 receptor A/ (Q16552 whole entry): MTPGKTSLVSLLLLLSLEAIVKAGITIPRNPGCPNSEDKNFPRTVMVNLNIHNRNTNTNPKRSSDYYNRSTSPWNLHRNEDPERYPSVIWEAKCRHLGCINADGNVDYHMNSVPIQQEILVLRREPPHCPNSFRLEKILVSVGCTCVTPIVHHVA
Sequence of Interleukin-17 receptor A/ (Q96F46 whole entry, further chain): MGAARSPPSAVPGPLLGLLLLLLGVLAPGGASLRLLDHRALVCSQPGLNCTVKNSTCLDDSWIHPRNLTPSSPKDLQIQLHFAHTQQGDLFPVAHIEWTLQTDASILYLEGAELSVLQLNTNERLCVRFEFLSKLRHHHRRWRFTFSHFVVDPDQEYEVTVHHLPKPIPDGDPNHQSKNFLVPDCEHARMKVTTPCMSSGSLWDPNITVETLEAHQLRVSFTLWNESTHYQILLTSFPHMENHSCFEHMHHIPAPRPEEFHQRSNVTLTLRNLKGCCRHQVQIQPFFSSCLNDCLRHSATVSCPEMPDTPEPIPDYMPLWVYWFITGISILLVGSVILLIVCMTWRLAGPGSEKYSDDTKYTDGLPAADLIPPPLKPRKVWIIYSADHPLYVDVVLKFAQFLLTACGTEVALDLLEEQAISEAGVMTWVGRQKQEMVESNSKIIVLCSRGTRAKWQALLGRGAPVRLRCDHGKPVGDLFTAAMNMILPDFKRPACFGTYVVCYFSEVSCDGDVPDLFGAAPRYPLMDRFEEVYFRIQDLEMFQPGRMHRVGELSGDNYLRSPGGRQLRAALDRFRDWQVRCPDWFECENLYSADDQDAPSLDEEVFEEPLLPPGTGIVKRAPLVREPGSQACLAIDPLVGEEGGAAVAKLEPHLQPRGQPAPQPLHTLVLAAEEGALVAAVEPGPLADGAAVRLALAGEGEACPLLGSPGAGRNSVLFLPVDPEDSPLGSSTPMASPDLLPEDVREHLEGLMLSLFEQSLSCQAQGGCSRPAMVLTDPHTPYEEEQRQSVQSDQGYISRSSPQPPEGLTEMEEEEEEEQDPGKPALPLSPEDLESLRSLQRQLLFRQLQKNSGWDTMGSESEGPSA

The target in the assay is Interleukin-17 receptor A/ (Homo sapiens, UniProt Q16552). In words: Human IL-17A x IL-17RA TR-FRET assay. Here is the method:
The final total assay volume is 10 µL. […] The neutral control (NC) contains all the assay components, but DMSO instead of test compound. […] The fluorescence values for emission at 615 nm and 665 nm are loaded to the evaluation software Helios.
For the molecule `Cc1cc[n+]([O-])c(C)c1-c1ccc(NC(=O)[C@@H](NC(=O)c2conc2CN)C2CCCCC2)cc1` [WO2022091056, Example 79], the IC50 is 918 nM.
As for `Cc1c(-c2ccc(NC(=O)[C@@H](NC(=O)c3ccnn3C)C3CCCCC3)cc2F)ccc[n+]1[O-]` [WO2022091056, Example 83], the figure is 1980 nM; as for `Cc1c[n+]([O-])cc(C)c1-c1ccc(NC(=O)[C@@H](NC(=O)c2ccnn2C)C2CCCCC2)cc1` [WO2022091056, Example 97], 1730 nM; as for `Cc1c(-c2ccc(NC(=O)[C@@H](NC(=O)c3ccnn3C)[C@H]3CCCC(F)(F)C3)cc2F)c(Cl)cc[n+]1[O-]` [WO2022091056, Example 110], 23 nM.
The same measure for `Cc1nccc(Cl)c1-c1ccc(NC(=O)[C@@H](NC(=O)c2ccnn2C)C2CCCCC2)cc1F` [WO2022091056, Example 137]: 3790 nM.
